The text below walks through data of US11453689B2, “3-pyrrolidine-indole derivatives as serotonergic psychedelic agents for the treatment of CNS disorders” (Mindset Pharma Inc., priority 2020, dated 2022).

Data set [1] addresses human 5-HT2A (h5-HT2A) receptor (Homo sapiens (Human), UniProt P28223). Put plainly: FLIPR calcium assay, human 5-HT2A receptor, agonist mode. It is filed as cell-based. As to the method:
I. Assessment of the Activated Effect of Exemplary Compounds of Formula I Targeting on Human 5-HT2A (h5-HT2A) Receptor Under Agonist Mode:
1. Culture the cells in cell culture medium (DMEM containing 10% FBS, 1× penicillin-streptomycin 300 μg/ml G418 and 100 μg/ml hygromycin B) at 37° C., 5% (v/v) CO2.
2. One day before the assays, detach the cell using TrypLE™ Express and count cells using cell counter.
3. Seed 20000 cells/well in 30 μl/well culture medium to a 384-well cell plate and incubate the cells overnight at 37° C., 5% (v/v) CO2.
4. On the assay day, prepare 2×dye solution following the manual of the FLIPR® Calcium 6 Assay Kit: i. Dilute the dye with assay buffer(20 mM HEPES in 1× HBSS, PH7.4); ii. Add probenecid to the final concentration of 5 mM; iii. Vortex vigorously for 1-2 minutes.
5. Medium from cell plate by flicking the cell plate on towel papers.
6. Add 10 μl of assay buffer and 10 μl of 2×dye solution to each well of the cell plate.
7. Put the cell plate on plate shaker, agitate the plate at 600 rpm for 2 minutes. Incubate the plate at 37° C. for 2 hours followed by additional 15-minute incubation at 25° C.
8. Prepare 3×compound in assay buffer: a. Dilute reference compounds to required concentration with DMSO. Add the compounds to a 384-well compound plate; b. Perform serial dilutions; c. Add 10 mM test compounds to the compound plate, perform 3-fold serial dilutions. d. […] Add 20 μl/well assay buffer to the compound plate; f. Mix the plate on plate shaker for 2 mins;
i. The normalized fluorescence reading (RFU) is calculated as shown follow, while Fmax and Fmin stand for maximum and minimum of calcium signal during defined time window: RFU=Fmax−Fmin
ii. Calculate the percentage activation by using following equation: […]
iii. Calculate EC50 by fitting % activation against log of compound concentrations with Hill equation using XLfit.

Data set [2] can be described thus: In vivo pharmacokinetics in male SD rats (IV and PO). The settings on record: rat; for AUC(0-inf) / C0 / clearance / AUC(0-t) / half-life / MRT inf / Vd / Cmax / Tmax / bioavailability: male, SD, plasma; for AUC(0-t): read-out: AUC0-tlast; for half-life: read-out: Apparent t1/2 (converted); for MRT inf: read-out: MRT0-inf; for Vd: read-out: Vss; for bioavailability: read-out: F (bioavailability). As to the method:
Example 26: In Vivo Assessment of the Pharmacokinetics in Mice and Rats Formulations were administered intravenously (i.v.) via the tail vein or orally (p.o.) by gavage with disposable feeding needles. i. Analysis software: Phoenix® WinNonlin® 8.2 (Pharsight, Certara, Mountainview, Calif.) ii. Analysis methods: non-compartmental analysis, linear up/log down trapezoidal rule iii. PK parameters: C0, t1/2, AUC0-tlast. AUC0-∞, CL, Vss, MRT, tmax(po), Cmax(po), F, as appropriate • C0 concentration extrapolated to time zero following an i.v. dose • tmax time at which maximum concentration is observed • Cmax maximum observed concentration • Apparent t1/2 apparent terminal half-life • AUC0-tlast area under the concentration vs time curve from time 0 to the time of the last measurable concentration • AUC0-inf area under the concentration vs time curve from time 0 to infinity • CL systemic clearance • MRT0-inf mean residence time from time zero to infinity • Vss steady-state volume of distribution • F bioavailability=(Dose^iv*AUC^po)/(Dose^po*AUC^iv)*100

Data set [3] is described as follows: Mouse liver microsomes stability with NADPH. The conditions noted are these: for half-life at 2 μM / microsomal CLint at 2 μM: male, mouse, microsomes; for Remaining Percentage (%) after 60 min, Mouse: mouse liver microsomes, with NADPH, 2 μM. Here is the method:
The objective of this study was to estimate in vitro metabolic stability of exemplary compounds in pooled human, male rat and male mouse liver microsomes. The concentrations of exemplary compounds in reaction systems were evaluated by LC-MS/MS for estimating the stability in pooled human, male rat and male mouse liver microsomes. The in vitro intrinsic clearances of test compounds were determined as well.
A master solution in the “Incubation Plate” containing phosphate buffer, ultra-pure H2O, MgCl2 solution and liver microsomes was made according to Table 3. The mixture was pre-warmed at 37° C. water bath for 5 minutes.
40 μL of 10 mM NADPH solution was added to each well. The final concentration of NADPH was 1 mM. The negative control samples were prepared by replacing NADPH with 40 μL of ultra-pure H2O. Samples were prepared in duplicate. Negative controls were prepared in singlet.
The reaction was started with the addition of 4 μL of 200 μM exemplary test compounds or control compounds to each master solution to get the final concentration of 2 μM. This study was performed in duplicate.
Aliquots of 50 μL were taken from the reaction solution at 0, 15, 30, 45 and 60 minutes. The reaction solutions were stopped by the addition of 4 volumes of cold methanol with IS (100 nM alprazolam, 200 nM imipramine, 200 nM labetalol and 2 μM ketoprofen). Samples were centrifuged at 3,220 g for 40 minutes. Aliquot of 90 μL of the supernatant was mixed with 90 μL of ultra-pure H2O and then was used for LC-MS/MS analysis.
LC/MS analysis was performed for all samples from this study using a Shimadzu liquid chromatograph separation system equipped with degasser DGU-20A5R; solvent delivery unit LC-30AD; system controller SIL-30AC; column oven CTO-30A; CTC Analytics HTC PAL System. Mass spectrometric analysis was performed using an Triple Quad™ 5500 instrument.
All calculations were carried out using Microsoft Excel. Peak areas were determined from extracted ion chromatograms. The slope value, k, was determined by linear regression of the natural logarithm of the remaining percentage of the parent drug vs. incubation time curve.
Conversion of the in vitro t1/2 (min) into the in vitro intrinsic clearance (in vitro CLint, in μL/min/mg proteins) was done using the following equation (mean of duplicate determinations): […]

The structures appear in SMILES notation. Where two headings read alike, the source gives them in different places. Where only a bound is given, the exact number is not on record here.

With `[2H]C([2H])([2H])N1CCC[C@@H]1Cc1c[nH]c2cccc(O)c12` [Compound I-2, (R)-3-((1-(methyl-d3)pyrrolidin-2-yl)methyl)-1H-indol-4-ol], in data set [1], the concentration for a half-maximal effect (EC50) is under 1000 nM. For the same compound, in data set [2] (IV, 0.3 mg/kg), the AUC(0-inf) is 28.7 ± 3.82 ng·h/mL, the C0 stood at 77.4 ± 7.22 ng/mL, the clearance was 177 mL/min/kg and the AUC(0-t) worked out at 27.6 ± 3.27 ng·h/mL. In addition, in data set [2] (IV, 0.3 mg/kg), the half-life was 0.593 ± 0.262 h, the MRT inf was found to be 0.609 ± 0.0984 h, the Vd was 6.45 ± 1.4 L/kg and the AUC0-inf/Dose was found to be 95.6 ± 12.7 kg·ng·h/mL/mg. Also, in data set [2] (PO, 3 mg/kg), the AUC(0-inf) is 419 ± 56.1 ng·h/mL, the Cmax was found to be 201 ± 50.9 ng/mL, the Tmax is 0.333 ± 0.144 h and the AUC(0-t) is 409 ± 46.1 ng·h/mL. Also, in data set [2] (PO, 3 mg/kg), the half-life was 2.69 ± 1.95 h, the bioavailability amounted to 146 ± 19.5%, the MRT inf is 2.29 ± 0.567 h and the AUC0-inf/Dose was determined as 140 ± 18.7 kg·ng·h/mL/mg. In data set [2] (PO, 3 mg/kg), the Cmax/Dose was 66.9 ± 17.0 kg·ng/mL/mg. For the same compound, in data set [3], the half-life at 2 μM worked out at 1.43 h; the microsomal CLint at 2 μM was 16.2 µL/min/mg; the “Remaining Percentage (%) after 60 min, Mouse” value (shortened to “Remaining Percentage (%)”) is 61.51%.
Consider `[2H]C([2H])(c1c[nH]c2cccc(OC)c12)[C@H]1CCCN1C([2H])([2H])[2H]` [Compound I-39, (R)-4-methoxy-3-((1-(methyl-d3)pyrrolidin-2-yl)methyl-d2)-1H-indole], for which the concentration giving a half-maximal response (EC50) in data set [1] is under 1000 nM. In data set [2] (IV, 0.3 mg/kg), the AUC(0-inf) was found to be 26.5 ± 3.62 ng·h/mL, the C0 was found to be 50.8 ± 4.63 ng/mL, the clearance was 192 mL/min/kg and the AUC(0-t) worked out at 25.9 ± 3.49 ng·h/mL. Also, in data set [2] (IV, 0.3 mg/kg), the half-life is 0.766 ± 0.0369 h, the MRT inf stood at 0.882 ± 0.0298 h, the Vd came to 10.1 ± 1.01 L/kg and the AUC0-inf/Dose stood at 88.3 ± 12.1 kg·ng·h/mL/mg. Moreover, in data set [2] (PO, 3 mg/kg), the AUC(0-inf) was 36.5 ng·h/mL, the concentration peaked (Cmax) at 14.8 ± 3.61 ng/mL, the Tmax worked out at 3.33 ± 2.31 h and the AUC(0-t) came to 1.48 ng·h/mL. Besides, in data set [2] (PO, 3 mg/kg), the half-life was 1.48 ± 0.813 h, the bioavailability amounted to 19.6 ± 10.3%, the MRT inf is 3.18 h and the AUC0-inf/Dose was found to be 17.3 ± 9.09 kg·ng·h/mL/mg. This compound also gave a Cmax/Dose in data set [2] (PO, 3 mg/kg) of 4.92 ± 1.20 kg·ng/mL/mg. Besides, in data set [3], the half-life at 2 μM was determined as 1.6 h; the microsomal CLint at 2 μM stood at 14.4 µL/min/mg; the “Remaining Percentage (%)” value is recorded as 64.91%.
Turning to `[2H]C([2H])(c1c[nH]c2cccc(O)c12)[C@H]1CCCN1C([2H])([2H])[2H]` [Compound I-44, (R)-3-((1-(methyl-d3)pyrrolidin-2-yl)methyl-d2)-1H-indol-4-ol], the EC50 in data set [1] was under 1000 nM. Besides, in data set [2] (IV, 0.3 mg/kg), the total exposure AUC(0-inf) stood at 27.3 ± 0.413 ng·h/mL, the C0 is 70.2 ± 2.67 ng/mL, the clearance was 183 mL/min/kg and the AUC(0-t) worked out at 26.4 ± 0.186 ng·h/mL. In addition, in data set [2] (IV, 0.3 mg/kg), the half-life is 0.43 ± 0.0371 h, the MRT inf is 0.528 ± 0.0255 h, the Vd stood at 5.8 ± 0.196 L/kg and the AUC0-inf/Dose was 91.0 ± 1.38 kg·ng·h/mL/mg. Besides, in data set [2] (PO, 3 mg/kg), the AUC(0-inf) turned out to be 392 ± 109 ng·h/mL, the Cmax was determined as 182 ± 107 ng/mL, the Tmax was determined as 0.5 ± 0.433 h and the AUC(0-t) amounted to 384 ± 98.9 ng·h/mL. In data set [2] (PO, 3 mg/kg), the half-life is 3.25 ± 1.36 h, the bioavailability came out at 144 ± 40.1%, the MRT inf was 3.14 ± 1.52 h and the AUC0-inf/Dose amounted to 131 ± 36.5 kg·ng·h/mL/mg. Besides, in data set [2] (PO, 3 mg/kg), the Cmax/Dose came out at 60.7 ± 35.5 kg·ng/mL/mg. Besides, in data set [3], the half-life at 2 μM came out at 1.18 h; the microsomal CLint at 2 μM came to 19.5 µL/min/mg; the “Remaining Percentage (%)” value is on record as 55.68%.

As a reminder, the EC50 is the midpoint of the concentration-response curve. In general, AUC(0-inf) refers to the area under the concentration-time curve extrapolated to infinity. By Cmax is commonly meant the highest concentration seen after dosing. The term Tmax denotes the time at which the peak concentration occurs. The microsomal CLint is a measure of how fast metabolising enzymes remove a compound, apart from limits set by blood flow. The low end stands for slow turnover, the high end for rapid turnover.
